# Measurements from US9476099B2 (TRUSTEES OF DARTMOUTH COLLEGE, priority 2012, dated 2016).
# System: gene promoters in NT2/D1-R1 control and DNMT3B knockdown cells
# Test: Genome-wide promoter methylation analysis, HumanMethylation27 BeadChip (Table 15)
# Assay type: cell-based, human
# Settings: sh-ctrl + 5aza
# Procedure: DNA methylation analysis was performed in samples in triplicate using the […] […] assay with the HumanMethylation27 BeadChip ([…]) and the BeadChip was scanned on the BeadArray Reader ([…]), according to the manufacturer's instructions. Raw data was normalized and analyzed with Genome Studio software ([…]). The HumanMethylation27 BeadChip assays 27,578 CpGs covering more than 14,000 genes, mostly from promoter regions. […] Hierarchical clustering was performed as stated above. HumanMethylation27 BeadChip data and gene expression microarray data were submitted to NCBI GEO.
smiles,measurement,setting,value
Nc1ncn([C@H]2C[C@H](O)[C@@H](CO)O2)c(=O)n1 [5aza],SERPING1 cg12783776 promoter methylation Mean,,0.601
same,SFRS16 cg19317638 promoter methylation Mean,,0.560
same,SFXN3 cg04880063 promoter methylation Mean,,0.170
same,SH3BGRL2 cg03080985 promoter methylation Mean,,0.398
same,SHH cg25167838 promoter methylation Mean,,0.175
same,SKIP cg04072323 promoter methylation Mean,,0.432
same,SLC30A2 cg05674944 promoter methylation Mean,,0.658
same,SMCP cg09542291 promoter methylation Mean,,0.705
same,SNX9 cg26845300 promoter methylation Mean,,0.985
same,SOX17 cg21226224 promoter methylation Mean,,0.858
same,SPRR1B cg24884084 promoter methylation Mean,,0.488
same,SSH1 cg11747499 promoter methylation Mean,,0.529
same,SSTR1 cg27590397 promoter methylation Mean,,1.209
same,TAC1 cg07550362 promoter methylation Mean,,0.798
same,TADA3L cg09279263 promoter methylation Mean,,0.445
same,TERT cg02545192 promoter methylation Mean,,0.547
same,TNFSF10 cg16555388 promoter methylation Mean,,0.687
same,TNRC4 cg26093148 promoter methylation Mean,,0.866
same,TNRC15 cg07230446 promoter methylation Mean,,0.425
same,TRAF3 cg24165760 promoter methylation Mean,,0.878
same,TRIM2 cg12793610 promoter methylation Mean,,0.815
same,TRIM36 cg10693071 promoter methylation Mean,,0.822
same,TRPM3 cg20555507 promoter methylation Mean,,0.413
same,UNC5D cg00297600 promoter methylation Mean,,0.612
same,WDR13 cg25053301 promoter methylation Mean,,0.317
same,ZFHX1B cg15377518 promoter methylation Mean,,0.680
same,ZNF222 cg09757277 promoter methylation Mean,,0.431
same,cg07512517 promoter methylation Mean,,0.619
same,"Mean promoter methylation, ABCA3 cg02331561",NT2/D1-R1 control cells,0.189
same,"Mean promoter methylation, ABLIM3 cg05026186",NT2/D1-R1 control cells,0.365
same,"Mean promoter methylation, ACTL6B cg08572611",NT2/D1-R1 control cells,0.210
same,"Mean promoter methylation, ANKRD46 cg23737055",NT2/D1-R1 control cells,0.329
same,"Mean promoter methylation, ARNT2 cg17788682",NT2/D1-R1 control cells,0.212
same,"Mean promoter methylation, B4GALNT3 cg05769161",NT2/D1-R1 control cells,0.577
same,"Mean promoter methylation, BTBD1 cg16958189",NT2/D1-R1 control cells,0.392
same,"Mean promoter methylation, C1RL cg22593785",NT2/D1-R1 control cells,0.347
same,"Mean promoter methylation, C10orf10 cg17186163",NT2/D1-R1 control cells,0.371
same,"Mean promoter methylation, C10orf72 cg02569613",NT2/D1-R1 control cells,0.553
same,"Mean promoter methylation, C12orf34 cg01335367",NT2/D1-R1 control cells,0.987
same,"Mean promoter methylation, C17orf40 cg18042079",NT2/D1-R1 control cells,0.207
same,"Mean promoter methylation, C19orf30 cg07456645",NT2/D1-R1 control cells,0.552
same,"Mean promoter methylation, C20orf29 cg09158909",NT2/D1-R1 control cells,0.322
same,"Mean promoter methylation, C22orf9 cg11221513",NT2/D1-R1 control cells,0.402
same,"Mean promoter methylation, CACNA1G cg18454685",NT2/D1-R1 control cells,0.587
same,"Mean promoter methylation, CAMKK2 cg01369981",NT2/D1-R1 control cells,0.344
same,"Mean promoter methylation, CART cg23300372",NT2/D1-R1 control cells,0.445
same,"Mean promoter methylation, CCKBR cg13346411",NT2/D1-R1 control cells,0.411
same,"Mean promoter methylation, CDC42EP1 cg13951472",NT2/D1-R1 control cells,0.342
same,"Mean promoter methylation, CDKN2A cg10895543",NT2/D1-R1 control cells,0.249
same,"Mean promoter methylation, CHST8 cg24739326",NT2/D1-R1 control cells,0.660
same,"Mean promoter methylation, CPSF1 cg20326853",NT2/D1-R1 control cells,0.408
same,"Mean promoter methylation, CSMD1 cg22619018",NT2/D1-R1 control cells,0.365
same,"Mean promoter methylation, DCTN3 cg22579849",NT2/D1-R1 control cells,0.613
same,"Mean promoter methylation, DDX42 cg05797656",NT2/D1-R1 control cells,0.226
same,"Mean promoter methylation, DGKD cg25506396",NT2/D1-R1 control cells,0.238
same,"Mean promoter methylation, DGKI cg06277657",NT2/D1-R1 control cells,0.365
same,"Mean promoter methylation, DKK2 cg01404615",NT2/D1-R1 control cells,0.819
same,"Mean promoter methylation, DUSP8 cg02271621",NT2/D1-R1 control cells,0.296
same,"Mean promoter methylation, EHD2 cg12603043",NT2/D1-R1 control cells,0.398
same,"Mean promoter methylation, ELK1 cg21860846",NT2/D1-R1 control cells,0.343
same,"Mean promoter methylation, EMP3 cg01795122",NT2/D1-R1 control cells,0.187
same,"Mean promoter methylation, EYA4 cg01805282",NT2/D1-R1 control cells,0.360
same,"Mean promoter methylation, FAM70B cg15350194",NT2/D1-R1 control cells,0.396
same,"Mean promoter methylation, FAM73B cg00729541",NT2/D1-R1 control cells,0.365
same,"Mean promoter methylation, FCHSD2 cg17114257",NT2/D1-R1 control cells,0.423
same,"Mean promoter methylation, FLJ20273 cg01704534",NT2/D1-R1 control cells,0.410
same,"Mean promoter methylation, FLJ20273 cg15967525",NT2/D1-R1 control cells,0.759
same,"Mean promoter methylation, FLJ42486 cg03734874",NT2/D1-R1 control cells,0.711
same,"Mean promoter methylation, GAB3 cg12938998",NT2/D1-R1 control cells,0.347
same,"Mean promoter methylation, GALR1 cg04534765",NT2/D1-R1 control cells,0.440
same,"Mean promoter methylation, GCN5L2 cg08434547",NT2/D1-R1 control cells,0.555
same,"Mean promoter methylation, GNAS cg00943909",NT2/D1-R1 control cells,0.621
same,"Mean promoter methylation, HBQ1 cg07703401",NT2/D1-R1 control cells,0.587
same,"Mean promoter methylation, HCN1 cg11285003",NT2/D1-R1 control cells,0.369
same,"Mean promoter methylation, HES6 cg24127874",NT2/D1-R1 control cells,0.763
same,"Mean promoter methylation, HEYL cg25462291",NT2/D1-R1 control cells,0.576
same,"Mean promoter methylation, HRH3 cg08186362",NT2/D1-R1 control cells,0.666
same,"Mean promoter methylation, ICAM1 cg22874046",NT2/D1-R1 control cells,0.349
same,"Mean promoter methylation, ID2 cg23525180",NT2/D1-R1 control cells,0.576
same,"Mean promoter methylation, IGFBP3 cg04796162",NT2/D1-R1 control cells,0.501
same,"Mean promoter methylation, KATNB1 cg15153383",NT2/D1-R1 control cells,0.474
same,"Mean promoter methylation, KCNAB1 cg23873703",NT2/D1-R1 control cells,0.548
same,"Mean promoter methylation, KCNC2 cg18573383",NT2/D1-R1 control cells,0.277
same,"Mean promoter methylation, KIAA1822 cg02867079",NT2/D1-R1 control cells,0.842
same,"Mean promoter methylation, KIAA1840 cg06121469",NT2/D1-R1 control cells,0.365
same,"Mean promoter methylation, KRTCAP2 cg11278262",NT2/D1-R1 control cells,0.432
same,"Mean promoter methylation, LGALS1 cg00292662",NT2/D1-R1 control cells,0.493
same,"Mean promoter methylation, LGR6 cg23578193",NT2/D1-R1 control cells,0.423
same,"Mean promoter methylation, LOX cg06508445",NT2/D1-R1 control cells,0.190
same,"Mean promoter methylation, MAP6D1 cg03705396",NT2/D1-R1 control cells,0.522
same,"Mean promoter methylation, MGC9850 cg21097640",NT2/D1-R1 control cells,0.292
same,"Mean promoter methylation, MRPL38 cg11653266",NT2/D1-R1 control cells,0.224
same,"Mean promoter methylation, MT cg14078309",NT2/D1-R1 control cells,0.213
same,"Mean promoter methylation, MYOD1 cg18555440",NT2/D1-R1 control cells,0.561
same,"Mean promoter methylation, OGG1 cg25415932",NT2/D1-R1 control cells,0.526
same,"Mean promoter methylation, OR10J1 cg25076881",NT2/D1-R1 control cells,0.576
same,"Mean promoter methylation, OSTbeta cg16029760",NT2/D1-R1 control cells,0.344
same,"Mean promoter methylation, PABPC4 cg12585282",NT2/D1-R1 control cells,0.296
same,"Mean promoter methylation, PDE8B cg18089852",NT2/D1-R1 control cells,0.203
same,"Mean promoter methylation, PHLDA2 cg01263716",NT2/D1-R1 control cells,0.504
same,"Mean promoter methylation, PHLDA2 cg04720330",NT2/D1-R1 control cells,0.379
same,"Mean promoter methylation, PIB5PA cg18053607",NT2/D1-R1 control cells,0.403
same,"Mean promoter methylation, PLOD1 cg23286660",NT2/D1-R1 control cells,0.468
same,"Mean promoter methylation, PPCDC cg11632617",NT2/D1-R1 control cells,0.523
same,"Mean promoter methylation, PRDM12 cg09191327",NT2/D1-R1 control cells,0.457
same,"Mean promoter methylation, PRMT8 cg23739862",NT2/D1-R1 control cells,0.125
same,"Mean promoter methylation, PTPRO cg19402885",NT2/D1-R1 control cells,0.671
same,"Mean promoter methylation, PTPRO cg27196745",NT2/D1-R1 control cells,0.570
same,"Mean promoter methylation, R3HDML cg17692403",NT2/D1-R1 control cells,0.529
same,"Mean promoter methylation, RAB37 cg12448933",NT2/D1-R1 control cells,0.483
same,"Mean promoter methylation, RASA4 cg05749161",NT2/D1-R1 control cells,0.157
same,"Mean promoter methylation, RASL11A cg06611744",NT2/D1-R1 control cells,0.348
same,"Mean promoter methylation, SCAMP3 cg01745448",NT2/D1-R1 control cells,0.308
same,"Mean promoter methylation, SCARA5 cg10171125",NT2/D1-R1 control cells,0.408
same,"Mean promoter methylation, SEC14L2 cg14452140",NT2/D1-R1 control cells,0.705
same,"Mean promoter methylation, SH3BGRL3 cg03100146",NT2/D1-R1 control cells,0.661
same,"Mean promoter methylation, SHH cg00577464",NT2/D1-R1 control cells,0.433
same,"Mean promoter methylation, SLC6A5 cg20632573",NT2/D1-R1 control cells,0.291
same,"Mean promoter methylation, SLC25A22 cg02973416",NT2/D1-R1 control cells,0.702
same,"Mean promoter methylation, SLC35C2 cg02413850",NT2/D1-R1 control cells,0.254
same,"Mean promoter methylation, SLIT1 cg07143898",NT2/D1-R1 control cells,0.325
same,"Mean promoter methylation, SORCS3 cg16787600",NT2/D1-R1 control cells,0.786
same,"Mean promoter methylation, SOX15 cg01029592",NT2/D1-R1 control cells,0.276
same,"Mean promoter methylation, SOX15 cg13098960",NT2/D1-R1 control cells,0.472
same,"Mean promoter methylation, SOX17 cg02919422",NT2/D1-R1 control cells,0.617
same,"Mean promoter methylation, STXBP3 cg11666924",NT2/D1-R1 control cells,0.260
same,"Mean promoter methylation, SUSD2 cg23349242",NT2/D1-R1 control cells,0.631
same,"Mean promoter methylation, TBXA2R cg09998229",NT2/D1-R1 control cells,0.659
same,"Mean promoter methylation, THAP3 cg11688219",NT2/D1-R1 control cells,0.581
same,"Mean promoter methylation, TMEM25 cg20001829",NT2/D1-R1 control cells,0.424
same,"Mean promoter methylation, TMEM106C cg25884854",NT2/D1-R1 control cells,0.482
same,"Mean promoter methylation, TRAPPC1 cg01667702",NT2/D1-R1 control cells,0.471
same,"Mean promoter methylation, UBA52 cg24356797",NT2/D1-R1 control cells,0.192
same,"Mean promoter methylation, UNQ2446 cg10574499",NT2/D1-R1 control cells,0.619
same,"Mean promoter methylation, VPREB1 cg18441959",NT2/D1-R1 control cells,0.524
same,"Mean promoter methylation, ZGPAT cg04078896",NT2/D1-R1 control cells,0.308
same,"Mean promoter methylation, ZGPAT cg18611245",NT2/D1-R1 control cells,0.736
same,"Mean promoter methylation, ZNF585B cg03751813",NT2/D1-R1 control cells,0.392
same,"Mean promoter methylation, ZNF702 cg07559730",NT2/D1-R1 control cells,0.457
